# Laboratory results published in PMC3919520 (Bioorganic & medicinal chemistry, 2013).
# Entries after “also recorded” stand apart in the source; their conditions may differ.
# Assays:
# BoNT/A = BoNT/A (Clostridium botulinum, UniProt P0DPI1); assay type: cell-based, C. botulinum
# Chain of BoNT/A (P0DPI1 2-448 limits assumed): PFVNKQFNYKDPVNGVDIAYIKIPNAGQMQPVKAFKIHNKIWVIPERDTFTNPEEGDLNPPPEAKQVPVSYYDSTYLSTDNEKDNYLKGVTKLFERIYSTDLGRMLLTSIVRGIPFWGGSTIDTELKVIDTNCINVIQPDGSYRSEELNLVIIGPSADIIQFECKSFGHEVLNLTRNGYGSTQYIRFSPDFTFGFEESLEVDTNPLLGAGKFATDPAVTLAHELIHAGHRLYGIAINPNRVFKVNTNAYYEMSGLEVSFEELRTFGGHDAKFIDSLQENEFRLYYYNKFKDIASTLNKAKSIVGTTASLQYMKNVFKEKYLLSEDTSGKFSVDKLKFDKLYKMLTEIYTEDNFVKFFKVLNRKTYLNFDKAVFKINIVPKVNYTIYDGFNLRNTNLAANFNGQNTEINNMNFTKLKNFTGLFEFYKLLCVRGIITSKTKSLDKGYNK
Structure (SMILES),Cytotoxicity (result in words) (hiPSC-derived neurons),Inhibition (BoNT/A),Inhibition / protection of SNAP-25 from the neurotoxin (result in words) (BoNT/A),Cytotoxicity (hiPSC-derived neurons; at 150 µM)
"O=C(CC(CCO)c1ccc(Cl)cc1Cl)NOC(=O)NCc1ccccc1 (centres unmarked) [compound 2, N-((benzylcarbamoyl)oxy)-3-(2,4-dichlorophenyl)-5-hydroxypentanamide]",did not show cytotoxicity,no inhibition; also recorded: partial inhibition at 300 µM,ineffective inhibitors,–
"O=C(/C=C/c1ccc(Cl)cc1Cl)NOC(=O)NCc1ccccc1 [compound 1, (E)-N-((benzylcarbamoyl)oxy)-3-(2,4-dichlorophenyl)acrylamide]",–,–,ineffective inhibitors,cytotoxic at 150 µM ^a
